# Laboratory results taken from patent US11351178B2, “Selective HDAC6 inhibitors” (ITALFARMACO S.P.A., priority 2017, dated 2022).
# What was measured:
# recombinant human HDAC3 = target: T1, recombinant human HDAC3 (Homo sapiens, UniProt O15379); assay: Enzymatic screening on recombinant human HDAC3; assay type: biochemical; conditions: Table 3
# T1 construct: purchased BPS 50003
# Method: Enzymatic activity on recombinant human HDAC6 and HDAC3 was evaluated (Table 2) for each synthesized compound.
# (§1) After a period of incubation at 30° C. (incubation times vary for different isoforms and are shown in table 1) 25 μL of solution containing the substrate were added. As substrate, FLUOR DE LYS® deacetylase substrate (Enzo Life Sciences, cat #BML-K1104, FdL), FLUOR DE LYS®-Green substrate (Enzo Life Sciences, cat #BML-K1572 FdL_G) and trifluoroacetyl-L-lysine (Tfal)-2× concentrated solution in 25 mM Tris-HCl, pH 8, 130 mM NaCl 0.05% Tween-20 10% glycerol) were used. Following a reaction period at 30° C.
# HDAC4 = target: T2, HDAC4 (Homo sapiens, UniProt P56524); assay: Enzymatic test HDAC4; assay type: biochemical; conditions: Table 3
# T2 construct: purchased BPS 50004
# Method: as §1
# [1] = test system: B 697 promyelocytic cell line; assay: Cytotoxicity on 697 cell line (CellTiter 96); assay type: cell-based; conditions: 72 hours incubation, read-out: 697 TOXICITY
# Procedure, shortened: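 Mitochondrial-function readout (CellTiter 96 Aqueous One) after 72 h compound exposure, begun 24 h post-seeding. Dose ranges: 697 cells, 1 to 10000 nM at 2×10^4 cells/well; PBMCs, 1.5 to 10000 nM at 5×10^5 cells/well.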
# HDAC8 = target: T3, HDAC8 (Homo sapiens, UniProt Q9BY41); assay: Enzymatic test HDAC8; assay type: biochemical; conditions: Table 3
# T3 construct: purchased BPS 50008
# T3 sequence (Q9BY41 1-377): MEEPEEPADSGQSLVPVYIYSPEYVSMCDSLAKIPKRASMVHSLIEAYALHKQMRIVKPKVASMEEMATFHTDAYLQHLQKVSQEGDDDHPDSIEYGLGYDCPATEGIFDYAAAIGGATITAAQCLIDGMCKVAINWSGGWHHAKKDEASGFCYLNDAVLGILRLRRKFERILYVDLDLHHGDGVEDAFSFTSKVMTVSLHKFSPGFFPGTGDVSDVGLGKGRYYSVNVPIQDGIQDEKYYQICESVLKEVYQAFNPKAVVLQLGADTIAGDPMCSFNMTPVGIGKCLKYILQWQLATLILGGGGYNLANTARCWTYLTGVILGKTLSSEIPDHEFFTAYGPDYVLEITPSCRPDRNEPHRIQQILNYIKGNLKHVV
# T1 sequence (O15379 whole entry): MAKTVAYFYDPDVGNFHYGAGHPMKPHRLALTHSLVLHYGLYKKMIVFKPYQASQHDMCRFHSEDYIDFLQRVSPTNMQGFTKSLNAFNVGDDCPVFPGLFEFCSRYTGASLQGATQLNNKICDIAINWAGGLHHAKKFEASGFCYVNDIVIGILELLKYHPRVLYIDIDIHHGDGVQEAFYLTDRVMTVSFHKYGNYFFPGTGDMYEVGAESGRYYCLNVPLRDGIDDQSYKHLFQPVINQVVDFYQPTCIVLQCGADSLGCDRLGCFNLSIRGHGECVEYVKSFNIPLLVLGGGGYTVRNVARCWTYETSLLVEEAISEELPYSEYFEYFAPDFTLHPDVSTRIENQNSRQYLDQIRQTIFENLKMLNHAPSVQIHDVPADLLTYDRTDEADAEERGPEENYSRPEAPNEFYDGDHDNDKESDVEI
# T1 sequence (Q9Y618 395-489 partner limits assumed): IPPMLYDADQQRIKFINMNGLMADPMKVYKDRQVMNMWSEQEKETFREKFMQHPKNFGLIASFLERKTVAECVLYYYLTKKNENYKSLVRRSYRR
# T2 sequence (P56524 627-1084 limits assumed): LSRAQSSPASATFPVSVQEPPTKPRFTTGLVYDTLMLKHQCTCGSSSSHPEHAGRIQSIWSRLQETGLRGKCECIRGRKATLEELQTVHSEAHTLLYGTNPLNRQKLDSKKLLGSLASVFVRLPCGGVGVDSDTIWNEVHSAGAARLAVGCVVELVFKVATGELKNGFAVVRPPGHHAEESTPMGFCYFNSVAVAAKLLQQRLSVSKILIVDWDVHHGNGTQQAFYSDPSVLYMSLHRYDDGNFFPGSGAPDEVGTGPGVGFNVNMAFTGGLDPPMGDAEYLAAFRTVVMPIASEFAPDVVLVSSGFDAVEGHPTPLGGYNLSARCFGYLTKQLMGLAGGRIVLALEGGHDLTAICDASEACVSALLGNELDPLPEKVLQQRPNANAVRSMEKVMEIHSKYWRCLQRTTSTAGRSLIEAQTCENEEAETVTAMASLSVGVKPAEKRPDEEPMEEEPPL
Structure (SMILES),IC50 (recombinant human HDAC3) [nM],IC50 (HDAC4) [nM],IC50 [1] [nM],IC50 (HDAC8) [nM]
"Cn1c(Sc2c(F)cc(C(=O)NO)cc2F)nnc1-c1cccc2ccccc12 [comp. 2, 3,5-difluoro-N-hydroxy-4-((4-methyl-5-(naphthalen-1-yl)-4H-1,2,4-triazol-3-yl)thio)benzamide]",8650,1460,6080,
"O=C(NO)c1ccc(Cn2nnnc2-c2cccs2)cc1 [comp. 8, N-hydroxy-4-((5-(thiophen-2-yl)-1H-tetrazol-1-yl)methyl)benzamide]",,,8880,
"O=C(NO)c1ccc(Cn2nnc(-c3ccc(C(F)(F)F)cc3)n2)cc1 [comp. 23, 4-[[5-[4-(trifluoromethyl)phenyl]tetrazol-2-yl]methyl]benzenecarbohydroxamic acid]",568,4240,,2830
"Nn1c(Sc2ccc(C(=O)NO)cc2)nnc1-c1ccc(OC(F)F)cc1 [comp. 28, 4-[[4-amino-5-[4-(difluoromethoxy)phenyl]-1,2,4-triazol-3-yl]sulfanyl]benzenecarbohydroxamic acid]",373,1330,,270
"O=C(NO)c1ccc(Cn2nnc(-c3cccs3)n2)cc1 [comp. 50, 4-[[5-(2-thienyl)tetrazol-2-yl]methyl]benzenecarbohydroxamic acid]",154,1950,,455
"O=C(NO)c1ccc(Cc2nnc(-c3ccc(F)cc3F)o2)cc1 [comp. 58, 4-((5-(2,4-difluorophenyl)-1,3,4-oxadiazol-2-yl)methyl)-N-hydroxybenzamide]",206,3930,,1000
"CN(C)c1cccc(-c2nnc(Sc3c(F)cc(C(=O)NO)cc3F)n2C)c1 [comp. 80, 4-[[5-[3-(dimethylamino)phenyl]-4-methyl-1,2,4-triazol-3-yl]sulfanyl]-3,5-difluoro-benzenecarbohydroxamic acid]",1870,731,,548
"Cn1c(Sc2c(F)cc(C(=O)NO)cc2F)nnc1C(c1ccccc1)c1ccccc1 [comp. 98, 4-[(5-benzhydryl-4-methyl-1,2,4-triazol-3-yl)sulfanyl]-3,5-difluoro-benzenecarbohydroxamic acid]",8930,1610,,186
"O=C(NO)c1cc(F)c(Cn2nnnc2-c2ncccn2)c(F)c1 [comp. 125, 3,5-difluoro-4-[(5-pyrimidin-2-yltetrazol-1-yl)methyl]benzenecarbohydroxamic acid]",,,> 10000,
"Cn1c(Sc2c(F)cc(C(=O)NO)cc2F)nnc1-c1cccc(CN2CCCCCC2)c1 [comp. 167, 4-[[5-[3-(azepan-1-ylmethyl)phenyl]-4-methyl-1,2,4-triazol-3-yl]sulfanyl]-3,5-difluoro-benzenecarbohydroxamic acid]",,,43000,
"Cn1c(Sc2c(F)cc(C(=O)NO)cc2F)nnc1-c1ccc(CN2CCCCCC2)cc1 [comp. 168, 4-[[5-[4-(azepan-1-ylmethyl)phenyl]-4-methyl-1,2,4-triazol-3-yl]sulfanyl]-3,5-difluoro-benzenecarbohydroxamic acid]",,,36900,
"Nc1ccc(-c2nnn(Cc3c(F)cc(C(=O)NO)cc3F)n2)cc1 [comp. 171, 4-[[5-(4-aminophenyl)tetrazol-2-yl]methyl]-3,5-difluoro-benzenecarbohydroxamic acid]",,,6140,
"Cn1c(Sc2c(F)cc(C(=O)NO)cc2F)nnc1-c1cccnn1 [comp. 179, 3,5-difluoro-4-[(4-methyl-5-pyridazin-3-yl-1,2,4-triazol-3-yl)sulfanyl]benzenecarbohydroxamic acid]",,,50300,
"Cn1c(Sc2c(F)cc(C(=O)NO)cc2F)nnc1-c1ncccc1F [comp. 180, 3,5-difluoro-4-[[5-(3-fluoro-2-pyridyl)-4-methyl-1,2,4-triazol-3-yl]sulfanyl]benzenecarbohydroxamic acid]",,,40200,
"O=C(NO)c1cc(F)c(Cc2nnc(-c3ccncc3)s2)c(F)c1 [compound 195, 3,5-difluoro-4-[[5-(4-pyridyl)-1,3,4-thiadiazol-2-yl]methyl]benzenecarbohydroxamic acid]",,,3120,
